What was measured:
[1] = Tmax in CD-1 mouse brain at […], ip by LC-MS/MS analysis; format: ADME, organism-based
[2] = Half life in CD-1 mouse by LC-MS/MS analysis; format: ADME; settings: in vivo
[3] = Bioavailability in CD-1 mouse at […], ig by LC-MS/MS analysis; format: ADME, organism-based; settings: in vivo, po
[4] = Ratio of drug level in CD-1 mouse brain to plasma by LC-ESI/MS/MS analysis; format: ADME; settings: brain and plasma
[5] = Cmax in CD-1 mouse brain at […], ip by LC-MS/MS analysis; format: ADME, organism-based; set-up: dose 2.5 mg/kg, route intraperitoneal
[6] = Drug uptake in CD-1 mouse brain at […] , iv by LC/MS/MS analysis; format: ADME, organism-based; settings: in vivo
[7] = Tmax in CD-1 mouse at […], ip by LC-MS/MS analysis; format: ADME, organism-based; settings: in vivo
[8] = Drug uptake in CD-1 mouse brain at […] , ig by LC/MS/MS analysis; format: ADME, organism-based; settings: in vivo, po
[9] = Volume of distribution at steady state in CD-1 mouse at […] by LC-MS/MS analysis; format: ADME, organism-based; settings: in vivo, read-out: Vdss
[10] = Drug uptake in CD-1 mouse brain at […] , ip by LC/MS/MS analysis; format: ADME, organism-based; settings: in vivo
[11] = Bioavailability in CD-1 mouse at […], ip by LC-MS/MS analysis; format: ADME, organism-based; settings: in vivo
[12] = Brain to plasma distribution coefficient in CD-1 mouse; format: ADME, organism-based; settings: brain and plasma
[13] = Volume of distribution in CD-1 mouse at […], ip by LC--MS/MS analysis; format: ADME, organism-based; settings: in vivo
[14] = Half life in CD-1 mouse at […], iv by LC-MS/MS analysis; format: ADME, organism-based; settings: in vivo
Mus musculus = experiment: Ratio of half life in CD-1 mouse at […], ip to half life in mouse at […], ig; format: ADME, organism-based; settings: in vivo

In the case of CCn1cncc1-c1c[nH]c2ccc(I)c(F)c12.Cl, the Tmax [1] is reported as 0.5 h, the half-life [2] is reported as 3.37 h and the bioavailability [3] is reported as 24%. The Kp [4] was 1.88 to 4.76, the Cmax [5] was 1070 ng/g and the Drug uptake [6] was “Active”. The Tmax [7] was 5 min, the Drug uptake [8] was “Active” and the Vd [9] was 2.8 L/kg. For the same compound, the Drug uptake [10] was “Active”, the bioavailability [11] was 39% and the Kp [12] was 3.48. For the same compound, the Vd [13] was 33.5 L/kg, the half-life [14] was 3.17 h and the Ratio (Mus musculus) was 2.
